System: Plasmodium berghei
Test: Luciferase/luciferin-expressing antifolate-resistant parasites were used to infect a culture of HepG2 cells that were pre-incubated with compounds. Infected hepatocytes emit light due to the luciferase reaction. Assay results are presented as the percent inhibition of light emission compared to control. […]
Assay type: functional
Details: sporozoite; for IC90: read-out: LUCIFERASE INFECTION ASSAY - IC90

Row | Structure (SMILES) | IC90 | other results
1 | Cc1ccsc1/C=N/Nc1ncc(Cl)cc1Cl | > 10 µM | IC50 (FFLUC_HILL_SLOPE 11.7, FFLUC_R_SQUARED 0.18, PBLUC_HILL_SLOPE 22.2, PBLUC_R_SQUARED 0.267, read-out: LUCIFERASE INFECTION ASSAY - IC50): 9.19 µM
2 | COc1ccc(CCN2C(=O)CS/C2=N\c2ccc(C)cc2C)cc1OC | > 8.58 µM | IC50 (FFLUC_HILL_SLOPE 11.8, FFLUC_R_SQUARED 0.0733, HEPG2TOX_HILL_SLOPE 1.46, HEPG2TOX_R_SQUARED 0.879, PBLUC_HILL_SLOPE 2.1, PBLUC_R_SQUARED 0.331, read-out: LUCIFERASE INFECTION ASSAY - IC50): 6.08 µM
3 | Cc1ccc(C(=O)C(=O)Nc2cc(S(=O)(=O)N3CCCCC3)ccc2OC(C)C)cc1 | > 10 µM | IC50 (FFLUC_HILL_SLOPE 11.8, FFLUC_R_SQUARED 0.613, read-out: LUCIFERASE INFECTION ASSAY - IC50): > 10 µM
4 | CCC(C)(C)c1ccc(OCC(=O)Nc2ccc(Cl)c(N)c2)c(C(C)(C)CC)c1 | 3.07 µM | IC50 (FFLUC_HILL_SLOPE 11.8, FFLUC_R_SQUARED 0.0263, PBLUC_HILL_SLOPE 15.2, PBLUC_R_SQUARED 0.794, read-out: LUCIFERASE INFECTION ASSAY - IC50): 2.66 µM
5 | Cc1nsc(N)c1C(=O)OCc1cc(=O)n2c3c(sc2n1)CCCC3 | > 10 µM | IC50 (FFLUC_HILL_SLOPE 11.9, FFLUC_R_SQUARED 0.297, read-out: LUCIFERASE INFECTION ASSAY - IC50): > 10 µM
6 | COc1cc2c(cc1OC)C(c1cccs1)N(CC(=O)Nc1cc([N+](=O)[O-])ccc1C)CC2 (centres undefined) | 2.62 µM | IC50 (FFLUC_HILL_SLOPE 11.9, FFLUC_R_SQUARED 0.176, HEPG2TOX_HILL_SLOPE 0.633, HEPG2TOX_R_SQUARED 0.848, PBLUC_HILL_SLOPE 2.15, PBLUC_R_SQUARED 0.479, read-out: LUCIFERASE INFECTION ASSAY - IC50): 0.944 µM
7 | Cc1ccc2nc(-c3ccc(NC(=O)COC(=O)c4oc5ccccc5c4COC(C)C)cc3)sc2c1 | > 10 µM | IC50 (FFLUC_HILL_SLOPE 11.7, FFLUC_R_SQUARED 0.82, PBLUC_HILL_SLOPE 2.16, PBLUC_R_SQUARED 0.259, read-out: LUCIFERASE INFECTION ASSAY - IC50): 9.03 µM
8 | CC(Sc1nccn1-c1cccc(F)c1)C(=O)Nc1ccc(N2CCOCC2)cc1 (centres undefined) | > 10 µM | IC50 (FFLUC_HILL_SLOPE 11.8, FFLUC_R_SQUARED 0.0999, read-out: LUCIFERASE INFECTION ASSAY - IC50): > 10 µM
9 | Cn1c(=O)/c(=C\c2cn(-c3ccccc3)nc2-c2ccccc2)s/c1=C\C(=O)C(C)(C)C | > 10 µM | IC50 (FFLUC_HILL_SLOPE 11.8, FFLUC_R_SQUARED 0.797, read-out: LUCIFERASE INFECTION ASSAY - IC50): > 10 µM
10 | N#CC(C(=O)CSc1nnc(-c2ccc(F)cc2)c2ccccc12)=C1Nc2ccccc2N1 | > 10 µM | IC50 (FFLUC_HILL_SLOPE 12, FFLUC_R_SQUARED 0.136, read-out: LUCIFERASE INFECTION ASSAY - IC50): > 10 µM
11 | COc1cc(OC)c(C2CCN(C(=O)c3nn(-c4ccc(F)cc4)c4c3CCCC4)CC2)c(OC)c1 | > 10 µM | IC50 (FFLUC_HILL_SLOPE 11.8, FFLUC_R_SQUARED 0.584, PBLUC_HILL_SLOPE 10.3, PBLUC_R_SQUARED 0.0293, read-out: LUCIFERASE INFECTION ASSAY - IC50): > 10 µM
12 | Cn1nc(C(F)(F)F)cc1-c1ccc(/C=C(\C#N)S(=O)(=O)c2ccc(Cl)cc2)s1 | > 7.21 µM | IC50 (FFLUC_HILL_SLOPE 11.9, FFLUC_R_SQUARED 0.391, read-out: LUCIFERASE INFECTION ASSAY - IC50): > 7.21 µM
13 | Cc1c(S(=O)(=O)c2ccc(Cl)cc2)csc1C(=O)Nc1cc(C(F)(F)F)cc(C(F)(F)F)c1 | > 6.25 µM | IC50 (FFLUC_HILL_SLOPE 11.9, FFLUC_R_SQUARED 0.653, HEPG2TOX_HILL_SLOPE 12.6, HEPG2TOX_R_SQUARED 0.751, PBLUC_HILL_SLOPE 2.69, PBLUC_R_SQUARED 0.583, read-out: LUCIFERASE INFECTION ASSAY - IC50): 3.24 µM
14 | O=C(Nc1ccc(Cl)cc1)Nc1cc(Cl)c(-n2cccc2)cc1Cl | > 8.67 µM | IC50 (FFLUC_HILL_SLOPE 11.8, FFLUC_R_SQUARED 0.707, PBLUC_HILL_SLOPE 1.68, PBLUC_R_SQUARED 0.178, read-out: LUCIFERASE INFECTION ASSAY - IC50): 6.82 µM
15 | NNc1nn2c(=O)c3c(-c4ccccc4)csc3nc2c2ccccc12 | > 10 µM | IC50 (FFLUC_HILL_SLOPE 12, FFLUC_R_SQUARED 0.305, PBLUC_HILL_SLOPE 10.1, PBLUC_R_SQUARED 0.389, read-out: LUCIFERASE INFECTION ASSAY - IC50): 8.61 µM
16 | CC(C)c1ccc(NC(=O)C2=CN3CCN(Cc4ccccc4)C(=O)N=C3O2)cc1 | > 10 µM | IC50 (FFLUC_HILL_SLOPE 11.9, FFLUC_R_SQUARED 0.0164, read-out: LUCIFERASE INFECTION ASSAY - IC50): > 10 µM

Row | Structure (SMILES) | IC90 | other results
17 | Cc1cccc(NC(=S)Nc2cn(-c3ccccc3)nc2-c2ccc(Br)cc2)c1C | > 10 µM | IC50 (FFLUC_HILL_SLOPE 12, FFLUC_R_SQUARED 0.538, PBLUC_HILL_SLOPE 15.7, PBLUC_R_SQUARED 0.516, read-out: LUCIFERASE INFECTION ASSAY - IC50): 9.52 µM
18 | COc1ccc(CCn2nc(C(=O)NC3CC3)c3c2CCN(C(=O)c2cc4cc(C)ccc4[nH]2)C3)cc1 | > 6.63 µM | IC50 (FFLUC_HILL_SLOPE 11.9, FFLUC_R_SQUARED 0.277, PBLUC_HILL_SLOPE 2.4, PBLUC_R_SQUARED 0.763, read-out: LUCIFERASE INFECTION ASSAY - IC50): 2.8 µM
19 | Cc1nn(-c2ccccc2)c2nc(Cl)c(C3Nc4ccccc4-c4nc5ccccc5n43)cc12 (centres undefined) | > 10 µM | IC50 (FFLUC_HILL_SLOPE 11.9, FFLUC_R_SQUARED 0.792, read-out: LUCIFERASE INFECTION ASSAY - IC50): > 10 µM
20 | N#Cc1nc(=O)n(-c2ccc(OC(F)(F)F)cc2)c(N)c1/N=C/c1ccc(C(F)(F)F)cc1 | 4.82 µM | IC50 (FFLUC_HILL_SLOPE 11.8, FFLUC_R_SQUARED 0.146, HEPG2TOX_HILL_SLOPE 2.94, HEPG2TOX_R_SQUARED 0.795, PBLUC_HILL_SLOPE 2.18, PBLUC_R_SQUARED 0.738, read-out: LUCIFERASE INFECTION ASSAY - IC50): 1.76 µM
21 | CCOc1ccc(-c2n[nH]c3c2C(c2ccccc2)N(c2ccccc2)C3=O)cc1 (centres undefined) | > 8.34 µM | IC50 (FFLUC_HILL_SLOPE 11.9, FFLUC_R_SQUARED 0.867, HEPG2TOX_HILL_SLOPE 2.22, HEPG2TOX_R_SQUARED 0.878, read-out: LUCIFERASE INFECTION ASSAY - IC50): > 8.34 µM
22 | CCOC(=O)c1c(-c2cccs2)csc1NC(=O)c1c(S)n(-c2ccccc2C)c2ccc(C)c[n+]12 | > 10 µM | IC50 (FFLUC_HILL_SLOPE 11.9, FFLUC_R_SQUARED 0.481, read-out: LUCIFERASE INFECTION ASSAY - IC50): > 10 µM
23 | COc1cc2ccccc2cc1C(=O)OC(C(=O)Nc1ccc(C)c(Cl)c1)c1ccccc1 (centres undefined) | > 10 µM | IC50 (FFLUC_HILL_SLOPE 12, FFLUC_R_SQUARED 0.255, PBLUC_HILL_SLOPE 12.6, PBLUC_R_SQUARED 0.137, read-out: LUCIFERASE INFECTION ASSAY - IC50): > 10 µM
24 | CC(C1CC2CCC1C2)n1c(SCc2nnc(-c3ccccc3)o2)nnc1-c1ccco1 (centres undefined) | > 10 µM | IC50 (FFLUC_HILL_SLOPE 12, FFLUC_R_SQUARED 0.233, read-out: LUCIFERASE INFECTION ASSAY - IC50): > 10 µM
25 | COc1ccc(OCCN2CCN(CC(=O)Nc3nc(-c4c[nH]c5ccccc45)cs3)CC2)cc1 | 9.98 µM | IC50 (FFLUC_HILL_SLOPE 11.8, FFLUC_R_SQUARED 0.598, PBLUC_HILL_SLOPE 24.3, PBLUC_R_SQUARED 0.264, read-out: LUCIFERASE INFECTION ASSAY - IC50): 9.11 µM
26 | O=C(Nc1ncccc1OCc1ccc(Cl)c(Cl)c1)c1cc(Cl)cc(Cl)c1 | > 7.46 µM | IC50 (FFLUC_HILL_SLOPE 11.8, FFLUC_R_SQUARED 0.202, PBLUC_HILL_SLOPE 16.7, PBLUC_R_SQUARED 0.189, read-out: LUCIFERASE INFECTION ASSAY - IC50): > 7.46 µM
27 | COc1ccc(Cl)cc1C(=O)NNC(=O)c1oc2ccccc2c1CSC1CCCCC1 | > 10 µM | IC50 (FFLUC_HILL_SLOPE 11.7, FFLUC_R_SQUARED 0.493, read-out: LUCIFERASE INFECTION ASSAY - IC50): > 10 µM
28 | Cc1ccc(CCC2CCN(C(=O)c3ccc(NS(=O)(=O)c4cccs4)cc3O)CC2)cc1 | > 10 µM | IC50 (FFLUC_HILL_SLOPE 12, FFLUC_R_SQUARED 0.0293, HEPG2TOX_HILL_SLOPE 12.4, HEPG2TOX_R_SQUARED 0.101, read-out: LUCIFERASE INFECTION ASSAY - IC50): > 10 µM
29 | COc1ccc(OC)c(/C=C/C(=O)Nc2cc(C(F)(F)F)ccc2Oc2ccc(Br)cc2)c1 | > 10 µM | IC50 (FFLUC_HILL_SLOPE 11.8, FFLUC_R_SQUARED 0.49, HEPG2TOX_HILL_SLOPE 2.88, HEPG2TOX_R_SQUARED 0.666, read-out: LUCIFERASE INFECTION ASSAY - IC50): > 10 µM
30 | CC(C)c1ccccc1N(C(=O)Cc1ccc(-c2ccccc2)cc1)c1nc2ccccc2s1 | > 10 µM | IC50 (FFLUC_HILL_SLOPE 11.9, FFLUC_R_SQUARED 0.677, HEPG2TOX_HILL_SLOPE 16.8, HEPG2TOX_R_SQUARED 0.508, PBLUC_HILL_SLOPE 1.31, PBLUC_R_SQUARED 0.0526, read-out: LUCIFERASE INFECTION ASSAY - IC50): 6.43 µM
31 | Cc1cc(C(=O)COC(=O)/C=C/c2cn(C)c(=O)n(C)c2=O)c(C)n1CCc1ccc(Cl)cc1 | > 10 µM | IC50 (FFLUC_HILL_SLOPE 11.7, FFLUC_R_SQUARED 0.825, read-out: LUCIFERASE INFECTION ASSAY - IC50): > 10 µM
32 | O=C(OCc1ccccc1)C1=C2Sc3ccccc3N2C(=O)NC1(c1ccccc1)C(F)(F)F (centres undefined) | > 10 µM | IC50 (FFLUC_HILL_SLOPE 11.9, FFLUC_R_SQUARED 0.439, PBLUC_HILL_SLOPE 2.55, PBLUC_R_SQUARED 0.528, read-out: LUCIFERASE INFECTION ASSAY - IC50): 6.8 µM

From ChEMBL document CHEMBL4483862, “Open-source discovery of chemical leads for next-generation chemoprotective antimalarials” (2018)
